From patent publication US9833497B2, “Human originated EGF domain proteins and use of the same” (CHENGDU SOURCEBIO LIMITED-LIABILITY COMPANY, priority 2013, dated 2017)

Legend:
Format in all cases: cell-based
Klebsiella pneumonia = assay: MIC against Gram-negative bacteria: Klebsiella pneumonia; details: 5×10^5 CFU/mL; for MIC against K. pneumonia: Klebsiella pneumonia
Procedure, shortened: (§1)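 Bacteria grown in LB at 37° C with shaking to McFarland 0.5, pelleted and resuspended in fresh LB, then seeded at 5×10^5 CFU/mL per well. Purified recombinant human EGF domain proteins were two-fold serially diluted in triplicate and plates shaken at 37° C, 175 rpm. MIC is the lowest protein concentration with no bacterial growth.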

Serratia marcescens = assay: MIC against Gram-negative bacteria: Serratia marcescens; details: 5×10^5 CFU/mL; for MIC against S. marcescens: Serratia marcescens
Procedure, shortened: as §1

Proteus mirabilis = assay: MIC against Gram-negative bacteria: Proteus mirabilis; details: 5×10^5 CFU/mL; for MIC against P. mirabilis: Proteus mirabilis
Procedure, shortened: as §1

Pseudomonas aeruginosa = assay: MIC against Gram-negative bacteria: Pseudomonas aeruginosa; details: 5×10^5 CFU/mL; for MIC against P. aeruginosa: Pseudomonas aeruginosa
Procedure, shortened: as §1

Proteus vulgaris = assay: MIC against Gram-negative bacteria: Proteus vulgaris; details: 5×10^5 CFU/mL; for MIC against P. vulgaris: Proteus vulgaris
Procedure, shortened: as §1

Moraxella catarrhalis = assay: MIC against Gram-negative bacteria: Moraxella catarrhalis; details: 5×10^5 CFU/mL; for MIC against M. catarrhalis: Moraxella catarrhalis
Procedure, shortened: as §1

Citrobacter diversus = assay: MIC against Gram-negative bacteria: Citrobacter diversus; details: 5×10^5 CFU/mL; for MIC against C. diversus: Citrobacter diversus
Procedure, shortened: as §1

E. coli DH5α = assay: Antibacterial activity: MIC and growth curve against E. coli DH5α in 96-well plate; details: minimal inhibitory concentration against E. coli DH5α; 96-well plate, 5×10^5 CFU/mL, 37° C., judged after 8 h
Procedure, shortened: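 Log-phase DH5α (OD600 about 0.5, 37° C, 185 rpm in LB) was pelleted, resuspended in fresh LB and seeded at 5×10^5 CFU/mL with recombinant protein at 50, 25 and 12.5 μg/mL (two-fold series), in triplicate. Plates were shaken at 175 rpm, 37° C, and OD600 was read every 30 min. MIC was the lowest concentration with no growth.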

E. coli BL21 = assay: MIC against Gram-negative bacteria: E. coli BL21; details: 5×10^5 CFU/mL
Procedure, shortened: as §1

Enterobacter cloacae = assay: MIC against Gram-negative bacteria: Enterobacter cloacae; details: 5×10^5 CFU/mL; for MIC against E. cloacae: Enterobacter cloacae
Procedure, shortened: as §1

Aeromonas hydrophila = assay: MIC against Gram-negative bacteria: Aeromonas hydrophila; details: 5×10^5 CFU/mL; for MIC against A. hydrophila: Aeromonas hydrophila
Procedure, shortened: as §1

Row | Substance | MIC against K. pneumonia (Klebsiella pneumonia; 96-well plate, 37° C., 10 h) | MIC against S. marcescens (Serratia marcescens; 96-well plate, 37° C., 10 h) | MIC against P. mirabilis (Proteus mirabilis; 96-well plate, 37° C., 10 h) | MIC against P. aeruginosa (Pseudomonas aeruginosa; 96-well plate, 37° C., 10 h) | MIC against P. vulgaris (Proteus vulgaris; 96-well plate, 37° C., 10 h) | MIC against M. catarrhalis (Moraxella catarrhalis; 96-well plate, 37° C., 10 h) | MIC against C. diversus (Citrobacter diversus; 96-well plate, 37° C., 10 h) | MIC (E. coli DH5α) | MIC against E. coli BL21 (E. coli BL21; 96-well plate, 37° C., 10 h) | MIC against E. cloacae (Enterobacter cloacae; 96-well plate, 37° C., 10 h) | MIC against A. hydrophila (Aeromonas hydrophila; 96-well plate, 37° C., 10 h) | MIC (μg/mL) K. pneumonia (Klebsiella pneumonia; 10 h cultivation at 37° C.) | MIC (μg/mL) S. marcescens (Serratia marcescens; 10 h cultivation at 37° C.) | MIC (μg/mL) P. mirabilis (Proteus mirabilis; 10 h cultivation at 37° C.) | MIC (μg/mL) P. aeruginosa (Pseudomonas aeruginosa; 10 h cultivation at 37° C.) | MIC (μg/mL) P. vulgaris (Proteus vulgaris; 10 h cultivation at 37° C.) | MIC (μg/mL) M. catarrhalis (Moraxella catarrhalis; 10 h cultivation at 37° C.) | MIC (μg/mL) C. diversus (Citrobacter diversus; 10 h cultivation at 37° C.) | MIC (μg/mL) E. coli BL21 (E. coli BL21; 10 h cultivation at 37° C.) | MIC (μg/mL) E. cloacae (Enterobacter cloacae; 10 h cultivation at 37° C.) | other results
1 | PRT1224 (PPGDCASHPCQNGGSCEPGLHSGFTCSCPDSHTGRTCE; listed as Homo sapiens) | 12.5 µg/mL | 50 µg/mL | 50 µg/mL | 25 µg/mL | 12.5 µg/mL | 25 µg/mL | 12.5 µg/mL | 25 µg/mL | 50 µg/mL | 25 µg/mL | 50 µg/mL | – | – | – | – | – | – | – | – | – | –
2 | PRT724 (DINECEQFGTCPQHCRNTKGSYECVCADGFTSMSDRPGKRCA; listed as Homo sapiens) | – | – | – | – | – | – | – | 12.5 µg/mL | – | – | – | – | – | – | – | – | – | – | – | – | MIC K. pneumonia (Klebsiella pneumonia; 96-well plate, 37° C., 10 h): 12.5 µg/mL; MIC S. marcescens (Serratia marcescens; 96-well plate, 37° C., 10 h): 25 µg/mL; MIC P. mirabilis (Proteus mirabilis; 96-well plate, 37° C., 10 h): 25 µg/mL; MIC P. aeruginosa (Pseudomonas aeruginosa; 96-well plate, 37° C., 10 h): 12.5 µg/mL; MIC P. vulgaris (Proteus vulgaris; 96-well plate, 37° C., 10 h): 12.5 µg/mL; MIC M. catarrhalis (Moraxella catarrhalis; 96-well plate, 37° C., 10 h): 12.5 µg/mL; MIC C. diversus (Citrobacter diversus; 96-well plate, 37° C., 10 h): 25 µg/mL; MIC E. coli BL21 (E. coli BL21; 96-well plate, 37° C., 10 h): 12.5 µg/mL; MIC E. cloacae (Enterobacter cloacae; 96-well plate, 37° C., 10 h): 25 µg/mL; MIC A. hydrophila (Aeromonas hydrophila; 96-well plate, 37° C., 10 h): 12.5 µg/mL
3 | PRT1263 (DVDECAQGLDDCHADALCQNTPTSYKCSCKPGYQGEGRQCE; listed as Homo sapiens) | 25 µg/mL | 50 µg/mL | 50 µg/mL | 12.5 µg/mL | 12.5 µg/mL | 12.5 µg/mL | 50 µg/mL | 100 µg/mL | 50 µg/mL | 50 µg/mL | 12.5 µg/mL | – | – | – | – | – | – | – | – | – | –
4 | PRT230 (DVDECADPRACPEHATCNNTVGNYSCFCNPGFESSSGHLSFQGLKASCE; listed as Homo sapiens) | – | – | – | – | – | – | – | 25 µg/mL | – | – | – | 12.5 µg/mL | 50 µg/mL | 50 µg/mL | 25 µg/mL | 12.5 µg/mL | 12.5 µg/mL | 25 µg/mL | 12.5 µg/mL | 25 µg/mL | MIC (μg/mL) A. hydrophila (Aeromonas hydrophila; 10 h cultivation at 37° C.): 12.5 µg/mL
5 | PRT1281 (DLCLSSPCQNQGTCHNDPLEVYRCACPSGYKGRDCE; listed as Homo sapiens) | 50 µg/mL | 50 µg/mL | 50 µg/mL | 25 µg/mL | 12.5 µg/mL | 12.5 µg/mL | 50 µg/mL | 50 µg/mL | 12.5 µg/mL | 25 µg/mL | 12.5 µg/mL | – | – | – | – | – | – | – | – | – | –
6 | PRT809 (NESCTCANGAACSPIDGSCSCTPGWLGDTCE; listed as Homo sapiens) | – | – | – | – | – | – | – | 25 µg/mL | – | – | – | 25 µg/mL | 25 µg/mL | 25 µg/mL | 25 µg/mL | 12.5 µg/mL | 50 µg/mL | 25 µg/mL | 12.5 µg/mL | 50 µg/mL | MIC (μg/mL) A. hydrophila (Aeromonas hydrophila; 10 h cultivation at 37° C.): 12.5 µg/mL
7 | PRT1312 (LQPVCTPPCAPEAVCRAGNSCECSLGYEGDGRVCT; listed as Homo sapiens) | 12.5 µg/mL | 50 µg/mL | 50 µg/mL | 50 µg/mL | 12.5 µg/mL | 12.5 µg/mL | 50 µg/mL | 50 µg/mL | 12.5 µg/mL | 50 µg/mL | 12.5 µg/mL | – | – | – | – | – | – | – | – | – | –
8 | PRT620 (CPCHNGFSCSVMPETEEVVCNNCPPGVTGARCELCADGYFGDPFGEHGPVRPCQP; listed as Homo sapiens) | – | – | – | – | – | – | – | 25 µg/mL | – | – | – | – | – | – | – | – | – | – | – | – | MIC K. pneumonia (Klebsiella pneumonia; 96-well plate, 37° C., 10 h): 50 µg/mL; MIC S. marcescens (Serratia marcescens; 96-well plate, 37° C., 10 h): 25 µg/mL; MIC P. mirabilis (Proteus mirabilis; 96-well plate, 37° C., 10 h): 25 µg/mL; MIC P. aeruginosa (Pseudomonas aeruginosa; 96-well plate, 37° C., 10 h): 25 µg/mL; MIC P. vulgaris (Proteus vulgaris; 96-well plate, 37° C., 10 h): 12.5 µg/mL; MIC M. catarrhalis (Moraxella catarrhalis; 96-well plate, 37° C., 10 h): 50 µg/mL; MIC C. diversus (Citrobacter diversus; 96-well plate, 37° C., 10 h): 12.5 µg/mL; MIC E. coli BL21 (E. coli BL21; 96-well plate, 37° C., 10 h): 12.5 µg/mL; MIC E. cloacae (Enterobacter cloacae; 96-well plate, 37° C., 10 h): 12.5 µg/mL; MIC A. hydrophila (Aeromonas hydrophila; 96-well plate, 37° C., 10 h): 50 µg/mL
9 | PRT184 (DLNYCTHHSPCKNGATCSNSGQRSYTCTCRPGYTGVDCE; listed as Homo sapiens) | – | – | – | – | – | – | – | 25 µg/mL | – | – | – | 50 µg/mL | 25 µg/mL | 25 µg/mL | 25 µg/mL | 12.5 µg/mL | 50 µg/mL | 25 µg/mL | 12.5 µg/mL | 25 µg/mL | MIC (μg/mL) A. hydrophila (Aeromonas hydrophila; 10 h cultivation at 37° C.): 12.5 µg/mL
10 | PRT1290 (KCNPCLSNPCKNDGTCNSDPVDFYRCTCPYGFKGQDCD; listed as Homo sapiens) | 12.5 µg/mL | 12.5 µg/mL | 50 µg/mL | 50 µg/mL | 12.5 µg/mL | 25 µg/mL | 12.5 µg/mL | 50 µg/mL | 12.5 µg/mL | 50 µg/mL | 25 µg/mL | – | – | – | – | – | – | – | – | – | –
11 | PRT1365 (SQLRCPNDCHSRGRCVEGKCVCEQGFKGYDCS; listed as Homo sapiens) | – | – | – | – | – | – | – | 12.5 µg/mL | – | – | – | – | – | – | – | – | – | – | – | – | MIC against K. pneumonia (Klebsiella pneumonia; 10 h cultivation at 37° C.): 50 µg/mL; MIC against S. marcescens (Serratia marcescens; 10 h cultivation at 37° C.): 12.5 µg/mL; MIC against P. mirabilis (Proteus mirabilis; 10 h cultivation at 37° C.): 12.5 µg/mL; MIC against P. aeruginosa (Pseudomonas aeruginosa; 10 h cultivation at 37° C.): 25 µg/mL; MIC against P. vulgaris (Proteus vulgaris; 10 h cultivation at 37° C.): 25 µg/mL; MIC against M. catarrhalis (Moraxella catarrhalis; 10 h cultivation at 37° C.): 25 µg/mL; MIC against C. diversus (Citrobacter diversus; 10 h cultivation at 37° C.): 50 µg/mL; MIC against E. coli BL21 (E. coli BL21; 10 h cultivation at 37° C.): 100 µg/mL; MIC against E. cloacae (Enterobacter cloacae; 10 h cultivation at 37° C.): 25 µg/mL; MIC against A. hydrophila (Aeromonas hydrophila; 10 h cultivation at 37° C.): 12.5 µg/mL
12 | PRT1472 (LEHPCASLCCGHGTCIDGIGSFSCDCRSGWEGRFCQ; listed as Homo sapiens) | – | – | – | – | – | – | – | 50 µg/mL | – | – | – | – | – | – | – | – | – | – | – | – | MIC against K. pneumonia (Klebsiella pneumonia; 10 h cultivation at 37° C.): 25 µg/mL; MIC against S. marcescens (Serratia marcescens; 10 h cultivation at 37° C.): 50 µg/mL; MIC against P. mirabilis (Proteus mirabilis; 10 h cultivation at 37° C.): 12.5 µg/mL; MIC against P. aeruginosa (Pseudomonas aeruginosa; 10 h cultivation at 37° C.): 25 µg/mL; MIC against P. vulgaris (Proteus vulgaris; 10 h cultivation at 37° C.): 25 µg/mL; MIC against M. catarrhalis (Moraxella catarrhalis; 10 h cultivation at 37° C.): 25 µg/mL; MIC against C. diversus (Citrobacter diversus; 10 h cultivation at 37° C.): 12.5 µg/mL; MIC against E. coli BL21 (E. coli BL21; 10 h cultivation at 37° C.): 50 µg/mL; MIC against E. cloacae (Enterobacter cloacae; 10 h cultivation at 37° C.): 12.5 µg/mL; MIC against A. hydrophila (Aeromonas hydrophila; 10 h cultivation at 37° C.): 25 µg/mL
13 | PRT155 (APGPCAAQPCRNGGVCTSRPEPDPQHPAPAGEPGYSCTCPAGISGANCQ; listed as Homo sapiens) | – | – | – | – | – | – | – | 12.5 µg/mL | – | – | – | 25 µg/mL | 12.5 µg/mL | 12.5 µg/mL | 12.5 µg/mL | 25 µg/mL | 25 µg/mL | 12.5 µg/mL | 25 µg/mL | 12.5 µg/mL | MIC (μg/mL) A. hydrophila (Aeromonas hydrophila; 10 h cultivation at 37° C.): 25 µg/mL
